From ChEMBL document CHEMBL5696441 (Nat Chem Biol, 2011)

Legend:
[1] = target: Serine/threonine-protein kinase Nek11 (Homo sapiens) (UniProt Q8NG66); experiment: Inhibition of human NEK11 assessed as residual activity at 1 uM using MBP as substrate in presence of 33P-ATP by ProQinase assay relative to control
[2] = target: Serine/threonine-protein kinase 38-like (Homo sapiens) (UniProt Q9Y2H1); experiment: Inhibition of NDR2 (unknown origin) assessed as remaining activity at 1 uM by Kinome scan method relative to control
Sequence of Serine/threonine-protein kinase 38-like (Homo sapiens) (Q9Y2H1 2-464 limits assumed): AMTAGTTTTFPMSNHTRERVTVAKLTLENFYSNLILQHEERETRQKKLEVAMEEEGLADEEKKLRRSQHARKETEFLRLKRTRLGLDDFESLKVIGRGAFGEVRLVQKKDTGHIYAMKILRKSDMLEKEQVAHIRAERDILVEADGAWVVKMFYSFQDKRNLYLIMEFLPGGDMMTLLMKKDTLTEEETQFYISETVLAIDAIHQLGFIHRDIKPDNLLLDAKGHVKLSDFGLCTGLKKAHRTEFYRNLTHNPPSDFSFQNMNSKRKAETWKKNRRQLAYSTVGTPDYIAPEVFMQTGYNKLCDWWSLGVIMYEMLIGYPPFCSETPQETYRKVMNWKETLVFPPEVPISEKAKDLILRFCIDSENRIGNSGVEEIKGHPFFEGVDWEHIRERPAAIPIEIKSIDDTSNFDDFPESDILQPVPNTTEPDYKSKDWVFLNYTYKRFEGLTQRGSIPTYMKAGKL

[3] = target: Cyclin-dependent kinase 2/cyclin E1 (Homo sapiens) (UniProt P24864+P24941); experiment: Inhibition of human CDK2/CycE1 assessed as residual activity at 1 uM using RBER-CHKtide as substrate in presence of 33P-ATP by ProQinase assay relative to control; type: protein-complex assay
[4] = target: T1, Myotonin-protein kinase (Homo sapiens) (UniProt Q09013); experiment: Inhibition of human DMPK assessed as residual activity at 1 uM using RBER-CHKtide as substrate in presence of 33P-ATP by ProQinase assay relative to control
T1 sequence (whole entry): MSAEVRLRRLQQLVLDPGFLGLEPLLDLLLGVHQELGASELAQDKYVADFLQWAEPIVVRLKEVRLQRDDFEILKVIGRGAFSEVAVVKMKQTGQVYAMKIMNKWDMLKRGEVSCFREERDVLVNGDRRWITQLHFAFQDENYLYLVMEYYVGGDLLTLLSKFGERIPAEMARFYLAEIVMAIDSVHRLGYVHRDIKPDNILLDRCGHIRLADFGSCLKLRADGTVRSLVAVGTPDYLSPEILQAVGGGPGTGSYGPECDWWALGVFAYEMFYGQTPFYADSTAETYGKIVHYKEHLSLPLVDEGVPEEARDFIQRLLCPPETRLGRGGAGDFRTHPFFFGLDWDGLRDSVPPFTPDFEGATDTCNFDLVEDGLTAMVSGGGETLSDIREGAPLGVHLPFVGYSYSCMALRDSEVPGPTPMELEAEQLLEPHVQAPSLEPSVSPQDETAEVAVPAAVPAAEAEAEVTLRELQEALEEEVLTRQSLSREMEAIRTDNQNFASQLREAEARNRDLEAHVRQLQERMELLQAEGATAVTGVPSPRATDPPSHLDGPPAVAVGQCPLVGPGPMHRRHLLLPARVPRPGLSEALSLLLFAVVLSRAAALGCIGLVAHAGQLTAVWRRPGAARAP

[5] = target: Serine/threonine-protein kinase PAK 4 (Homo sapiens) (UniProt O96013); experiment: Inhibition of human PAK4 assessed as residual activity at 1 uM using bio-4xCHKT as substrate in presence of 33P-ATP by ProQinase assay relative to control
Sequence of Serine/threonine-protein kinase PAK 4 (Homo sapiens) (O96013 whole entry, looked up): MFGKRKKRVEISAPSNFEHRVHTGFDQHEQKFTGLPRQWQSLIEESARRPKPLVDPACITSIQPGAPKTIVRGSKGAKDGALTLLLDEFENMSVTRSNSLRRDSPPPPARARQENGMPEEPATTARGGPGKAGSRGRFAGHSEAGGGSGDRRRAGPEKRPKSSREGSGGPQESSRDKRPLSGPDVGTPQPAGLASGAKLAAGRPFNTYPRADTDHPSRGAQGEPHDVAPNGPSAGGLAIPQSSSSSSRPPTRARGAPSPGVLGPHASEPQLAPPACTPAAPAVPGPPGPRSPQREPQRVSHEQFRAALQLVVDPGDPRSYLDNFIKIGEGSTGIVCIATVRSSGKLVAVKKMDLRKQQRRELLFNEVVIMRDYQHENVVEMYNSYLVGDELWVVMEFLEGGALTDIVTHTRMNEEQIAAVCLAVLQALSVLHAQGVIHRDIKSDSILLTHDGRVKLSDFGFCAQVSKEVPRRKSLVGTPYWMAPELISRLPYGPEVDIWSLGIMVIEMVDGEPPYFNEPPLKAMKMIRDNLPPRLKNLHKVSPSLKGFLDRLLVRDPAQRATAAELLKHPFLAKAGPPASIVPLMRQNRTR

[6] = target: Ribosomal protein S6 kinase alpha-5 (Homo sapiens) (UniProt O75582); experiment: Inhibition of human RPS6KA5 assessed as residual activity at 1 uM using RBER-CHKtide as substrate in presence of 33P-ATP by ProQinase assay relative to control
Sequence of Ribosomal protein S6 kinase alpha-5 (Homo sapiens) (O75582 whole entry, looked up): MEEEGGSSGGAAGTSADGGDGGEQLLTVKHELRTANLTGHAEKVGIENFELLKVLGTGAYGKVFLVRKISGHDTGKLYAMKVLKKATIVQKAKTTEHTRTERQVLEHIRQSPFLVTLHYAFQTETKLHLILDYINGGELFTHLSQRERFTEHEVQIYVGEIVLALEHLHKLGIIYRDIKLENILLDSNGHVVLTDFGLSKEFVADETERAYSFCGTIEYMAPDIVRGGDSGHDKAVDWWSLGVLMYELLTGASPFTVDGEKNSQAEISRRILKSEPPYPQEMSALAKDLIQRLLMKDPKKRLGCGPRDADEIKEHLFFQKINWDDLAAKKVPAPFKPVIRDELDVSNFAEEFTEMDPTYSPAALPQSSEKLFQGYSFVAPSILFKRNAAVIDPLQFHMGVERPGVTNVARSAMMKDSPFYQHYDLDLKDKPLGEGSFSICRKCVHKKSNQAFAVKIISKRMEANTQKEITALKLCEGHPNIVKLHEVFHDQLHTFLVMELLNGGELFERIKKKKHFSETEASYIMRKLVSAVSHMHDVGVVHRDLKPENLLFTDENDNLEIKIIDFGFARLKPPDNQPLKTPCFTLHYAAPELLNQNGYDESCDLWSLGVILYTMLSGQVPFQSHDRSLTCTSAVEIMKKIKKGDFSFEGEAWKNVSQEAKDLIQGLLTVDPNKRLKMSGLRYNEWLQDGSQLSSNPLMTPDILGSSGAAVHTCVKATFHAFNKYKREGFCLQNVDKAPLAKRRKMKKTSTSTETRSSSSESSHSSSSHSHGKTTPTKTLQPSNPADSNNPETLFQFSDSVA

[7] = tested on: Hepatocyte growth factor receptor (Homo sapiens), P08581 [M1250T]; experiment: Inhibition of MET M1250T mutant (unknown origin) assessed as remaining activity at 1 uM by Kinome scan method relative to control
[8] = target: Dual specificity protein kinase CLK3 (Homo sapiens) (UniProt P49761); experiment: Inhibition of CLK3 (unknown origin) assessed as remaining activity at 1 uM by Kinome scan method relative to control
Sequence of Dual specificity protein kinase CLK3 (Homo sapiens) (P49761 whole entry, looked up): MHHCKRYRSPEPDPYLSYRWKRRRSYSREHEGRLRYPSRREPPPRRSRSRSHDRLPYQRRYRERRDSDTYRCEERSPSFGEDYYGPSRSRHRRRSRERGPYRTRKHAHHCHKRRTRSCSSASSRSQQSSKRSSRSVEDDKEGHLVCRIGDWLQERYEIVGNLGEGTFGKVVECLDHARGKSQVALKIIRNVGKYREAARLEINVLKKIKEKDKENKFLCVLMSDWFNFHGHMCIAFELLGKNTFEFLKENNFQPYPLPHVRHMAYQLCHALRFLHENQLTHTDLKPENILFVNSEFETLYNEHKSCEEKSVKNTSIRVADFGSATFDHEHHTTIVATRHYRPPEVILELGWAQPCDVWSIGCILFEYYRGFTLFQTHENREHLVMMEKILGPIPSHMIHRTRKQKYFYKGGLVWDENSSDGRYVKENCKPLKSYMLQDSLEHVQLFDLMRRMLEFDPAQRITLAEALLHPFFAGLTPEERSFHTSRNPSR

[9] = Anti-inflammatory activity against human derived medium respond PBMC cells assessed as inhibition in stimulated IL-1ra cytokine release incubated for 2 hrs in the presence of LPS/SEB/aCD28 by Luminex based sandwich immunoassay; type: functional, cell-based
[10] = Anti-inflammatory activity against human derived high respond PBMC cells assessed as inhibition in stimulated IP-10 chemokine release incubated for 2 hrs in the presence of LPS/SEB/aCD28 by Luminex based sandwich immunoassay; type: functional, cell-based
[11] = target: Glycogen synthase kinase-3 beta (Homo sapiens) (UniProt P49841); experiment: Inhibition of human GSK3beta assessed as residual activity at 1 uM using RBER-CHKtide as substrate in presence of 33P-ATP by ProQinase assay relative to control
Sequence of Glycogen synthase kinase-3 beta (Homo sapiens) (P49841 whole entry, looked up): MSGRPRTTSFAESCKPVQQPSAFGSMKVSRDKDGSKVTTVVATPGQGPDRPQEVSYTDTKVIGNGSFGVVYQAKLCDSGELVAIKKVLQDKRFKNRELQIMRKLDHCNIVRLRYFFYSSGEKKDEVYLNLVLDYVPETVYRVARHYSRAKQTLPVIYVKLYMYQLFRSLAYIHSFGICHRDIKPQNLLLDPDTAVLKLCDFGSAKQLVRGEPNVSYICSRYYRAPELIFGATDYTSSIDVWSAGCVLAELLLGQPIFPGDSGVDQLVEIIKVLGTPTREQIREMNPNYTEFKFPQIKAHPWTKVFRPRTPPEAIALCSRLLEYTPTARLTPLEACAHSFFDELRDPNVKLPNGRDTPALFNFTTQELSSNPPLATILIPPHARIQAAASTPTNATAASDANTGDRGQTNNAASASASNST

[12] = target: Mitogen-activated protein kinase kinase kinase kinase 4 (Homo sapiens) (UniProt O95819); experiment: Inhibition of human MAP4K4 assessed as residual activity at 1 uM using casein as substrate in presence of 33P-ATP by ProQinase assay relative to control
Sequence of Mitogen-activated protein kinase kinase kinase kinase 4 (Homo sapiens) (O95819 2-1239 limits assumed): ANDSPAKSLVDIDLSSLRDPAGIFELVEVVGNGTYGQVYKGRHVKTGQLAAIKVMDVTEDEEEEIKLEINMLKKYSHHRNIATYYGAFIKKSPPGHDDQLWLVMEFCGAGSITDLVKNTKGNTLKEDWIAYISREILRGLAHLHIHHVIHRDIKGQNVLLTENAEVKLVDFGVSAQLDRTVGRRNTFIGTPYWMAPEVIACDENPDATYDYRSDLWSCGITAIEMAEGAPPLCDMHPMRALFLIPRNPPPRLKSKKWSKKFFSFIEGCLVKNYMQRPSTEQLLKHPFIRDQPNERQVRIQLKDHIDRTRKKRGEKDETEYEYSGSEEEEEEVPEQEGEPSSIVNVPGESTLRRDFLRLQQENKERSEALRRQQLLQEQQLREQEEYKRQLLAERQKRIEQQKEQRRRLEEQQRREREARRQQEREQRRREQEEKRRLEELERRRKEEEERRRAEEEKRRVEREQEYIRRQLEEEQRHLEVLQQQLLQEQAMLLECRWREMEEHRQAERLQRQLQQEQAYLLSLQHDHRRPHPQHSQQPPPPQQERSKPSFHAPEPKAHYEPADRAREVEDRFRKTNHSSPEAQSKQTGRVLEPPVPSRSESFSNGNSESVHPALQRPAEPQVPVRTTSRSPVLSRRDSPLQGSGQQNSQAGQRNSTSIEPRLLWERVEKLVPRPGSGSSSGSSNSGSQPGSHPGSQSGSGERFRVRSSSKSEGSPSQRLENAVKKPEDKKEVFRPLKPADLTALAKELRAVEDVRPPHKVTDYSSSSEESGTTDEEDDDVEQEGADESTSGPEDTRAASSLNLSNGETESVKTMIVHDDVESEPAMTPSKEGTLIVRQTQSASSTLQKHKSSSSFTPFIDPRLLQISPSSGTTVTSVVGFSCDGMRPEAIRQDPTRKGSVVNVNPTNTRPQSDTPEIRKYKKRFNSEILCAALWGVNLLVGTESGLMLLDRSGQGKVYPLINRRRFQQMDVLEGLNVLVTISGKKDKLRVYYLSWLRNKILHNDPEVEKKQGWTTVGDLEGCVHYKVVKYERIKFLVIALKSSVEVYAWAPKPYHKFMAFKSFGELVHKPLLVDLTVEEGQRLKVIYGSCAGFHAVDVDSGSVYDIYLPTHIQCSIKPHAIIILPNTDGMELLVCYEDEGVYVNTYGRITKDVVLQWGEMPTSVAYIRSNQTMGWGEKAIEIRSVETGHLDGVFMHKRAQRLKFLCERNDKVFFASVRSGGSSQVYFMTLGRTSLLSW

[13] = tested on: Proto-oncogene tyrosine-protein kinase receptor Ret (Homo sapiens), P07949 [V804L]; experiment: Inhibition of human RET V804L mutant assessed as residual activity at 1 uM using polyEY as substrate in presence of 33P-ATP by ProQinase assay relative to control
[14] = target: Calcium/calmodulin-dependent protein kinase type II subunit delta (Homo sapiens) (UniProt Q13557); experiment: Inhibition of CAMK2D (unknown origin) assessed as remaining activity at 1 uM by Kinome scan method relative to control
Sequence of Calcium/calmodulin-dependent protein kinase type II subunit delta (Homo sapiens) (Q13557 whole entry): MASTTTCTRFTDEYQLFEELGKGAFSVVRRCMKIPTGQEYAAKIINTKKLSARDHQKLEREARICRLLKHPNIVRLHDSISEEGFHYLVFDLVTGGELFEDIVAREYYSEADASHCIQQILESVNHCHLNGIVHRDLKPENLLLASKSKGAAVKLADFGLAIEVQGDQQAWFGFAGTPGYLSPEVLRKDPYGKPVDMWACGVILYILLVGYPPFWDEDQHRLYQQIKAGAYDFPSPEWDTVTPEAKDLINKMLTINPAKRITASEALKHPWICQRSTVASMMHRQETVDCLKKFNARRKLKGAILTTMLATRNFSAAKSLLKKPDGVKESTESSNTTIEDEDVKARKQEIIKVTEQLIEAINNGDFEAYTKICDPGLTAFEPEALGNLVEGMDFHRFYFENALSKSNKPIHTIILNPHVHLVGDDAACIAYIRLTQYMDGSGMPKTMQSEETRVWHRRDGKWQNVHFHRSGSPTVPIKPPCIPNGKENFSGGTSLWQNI

[15] = target: Dual specificity protein kinase CLK3 (Homo sapiens) (UniProt P49761); experiment: Inhibition of human CLK3 assessed as residual activity at 1 uM using RB-S6P as substrate in presence of 33P-ATP by ProQinase assay relative to control
[16] = target: 5'-AMP-activated protein kinase catalytic subunit alpha-1 (Homo sapiens) (UniProt Q13131); experiment: Inhibition of human AMPKalpha1 assessed as residual activity at 1 uM using RBER-CHKtide as substrate in presence of 33P-ATP by ProQinase assay relative to control
[17] = target: Serine/threonine-protein kinase PLK2 (Homo sapiens) (UniProt Q9NYY3); experiment: Inhibition of PLK2 (unknown origin) assessed as remaining activity at 1 uM by Kinome scan method relative to control
[18] = tested on: Receptor-type tyrosine-protein kinase FLT3 (Homo sapiens), P36888 [K663Q]; experiment: Inhibition of FLT3 K663Q mutant (unknown origin) assessed as remaining activity at 1 uM by Kinome scan method relative to control
[19] = tested on: Tyrosine-protein kinase ABL1 (Homo sapiens), P00519 [E255K]; experiment: Inhibition of human ABL1 E255K mutant assessed as residual activity at 1 uM using Poly(Ala,Glu,Lys,Tyr)6:2:5:1 as substrate in presence of 33P-ATP by ProQinase assay relative to control
[20] = target: MAP kinase-interacting serine/threonine-protein kinase 1 (Homo sapiens) (UniProt Q9BUB5); experiment: Inhibition of MKNK1 (unknown origin) assessed as remaining activity at 1 uM by Kinome scan method relative to control
Sequence of MAP kinase-interacting serine/threonine-protein kinase 1 (Homo sapiens) (Q9BUB5 whole entry, looked up): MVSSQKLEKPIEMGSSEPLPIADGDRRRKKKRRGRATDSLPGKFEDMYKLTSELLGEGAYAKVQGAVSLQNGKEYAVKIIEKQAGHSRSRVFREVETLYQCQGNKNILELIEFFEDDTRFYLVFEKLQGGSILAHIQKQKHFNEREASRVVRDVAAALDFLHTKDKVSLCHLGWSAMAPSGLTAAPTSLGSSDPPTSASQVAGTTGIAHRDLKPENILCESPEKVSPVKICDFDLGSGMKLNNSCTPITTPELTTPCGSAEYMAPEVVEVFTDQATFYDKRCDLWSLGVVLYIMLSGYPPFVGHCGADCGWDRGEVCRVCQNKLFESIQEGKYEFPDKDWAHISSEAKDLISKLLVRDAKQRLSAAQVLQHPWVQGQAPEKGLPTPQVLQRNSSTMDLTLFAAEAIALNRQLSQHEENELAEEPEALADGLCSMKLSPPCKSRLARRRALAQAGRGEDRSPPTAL

[21] = tested on: Epidermal growth factor receptor (Homo sapiens), P00533 [L861Q]; experiment: Inhibition of EGFR L861Q mutant (unknown origin) assessed as remaining activity at 1 uM by Kinome scan method relative to control
[22] = target: Tyrosine-protein kinase BTK (Homo sapiens) (UniProt Q06187); experiment: Inhibition of human BTK assessed as residual activity at 1 uM using PolyEY as substrate in presence of 33P-ATP by ProQinase assay relative to control
[23] = target: Ephrin type-A receptor 4 (Homo sapiens) (UniProt P54764); experiment: Inhibition of human EPHA4 assessed as residual activity at 1 uM using polyEY as substrate in presence of 33P-ATP by ProQinase assay relative to control

## O=C1c2ccc(Nc3ccc(F)cc3F)cc2CCc2ccc(OC[C@H](O)CO)cc21 [Skepinone-L]
[1]
  Activity: 113%
[2]
  Activity: 100%
[3]
  Activity: 85%
[4]
  Activity: 99%
[5]
  Activity: 88%
[6]
  Activity: 77%
[7]
  Activity: 93%
[8]
  Activity: 96%
[9]
  IC50: 870 nM
[10]
  IC50: Not Active
[11]
  Activity: 97%
[12]
  Activity: 79%
[13]
  Activity: 115%
[14]
  Activity: 100%
[15]
  Activity: 88%
[16]
  Activity: 84%
[17]
  Activity: 100%
[18]
  Activity: 98%
[19]
  Activity: 105%
[20]
  Activity: 99%
[21]
  Activity: 72%
[22]
  Activity: 100%
[23]
  Activity: 93%
